Assay results from patent US12152038B2, “Vasopressin receptor antagonists and products and methods related thereto” (Neumora Therapeutics, Inc., priority 2017, dated 2024).
pIC50: −log10 of the molar value.

Target: T1, human Arginine Vasopressin Receptor 1b (AVPR1b) (Homo sapiens, UniProt P47901)
T1 construct: expressed in transfected cells; host or cells: CHO (CHO-AVPR1b, kept under G418 selection)
T1 sequence (P47901 1-424): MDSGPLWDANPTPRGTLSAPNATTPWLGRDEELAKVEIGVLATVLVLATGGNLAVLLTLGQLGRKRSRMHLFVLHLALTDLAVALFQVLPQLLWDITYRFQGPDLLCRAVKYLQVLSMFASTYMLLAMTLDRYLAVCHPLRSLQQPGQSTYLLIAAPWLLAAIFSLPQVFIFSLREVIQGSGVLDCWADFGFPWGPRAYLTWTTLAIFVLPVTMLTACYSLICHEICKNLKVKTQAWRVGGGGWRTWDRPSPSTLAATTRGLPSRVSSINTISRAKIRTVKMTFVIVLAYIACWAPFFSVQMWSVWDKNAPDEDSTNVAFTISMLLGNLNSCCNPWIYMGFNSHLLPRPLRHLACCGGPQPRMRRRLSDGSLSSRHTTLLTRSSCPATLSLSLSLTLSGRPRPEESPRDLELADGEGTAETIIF
Experiment: Vasopressin V1b receptor antagonist assay (FLIPR calcium, CHO-AVPR1b cells)
Format: cell-based
In short: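 CHO cells expressing human AVPR1b, loaded with Calcium-6 dye, were given compound (10-point, 1:3) for 15 min at 37 °C. Then AVP was added at its daily-determined EC80 in HBSS/HEPES. FLIPR fluorescence read for 3 min; antagonism seen as reduced AVP calcium response.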

Structure (SMILES) | pIC50
CC1COc2cc(Cl)ccc2N1C(=O)N1CC2(C1)CN(c1cc(=O)n(C)cn1)C2 (single isomer, unassigned) [20-14-B] | ≤ 6.00
CC1COc2cc(Cl)ccc2N1C(=O)N1CC2(C1)CN(c1noc3ccccc13)C2 (centres unmarked) [21-1, (6-(benzo[d]isoxazol-3-yl)-2,6-diazaspiro[3.3]heptan-2-yl)(7-chloro-3-methyl-2,3-dihydro-4H-benzo[b][1,4]oxazin-4-yl)methanone] | ≤ 6.00
CC1COc2cc(Cl)ccc2N1C(=O)N1CC2(C1)CN(c1ccccn1)C2 (single isomer, unassigned) [1-60-B] | ≤ 6.00
CC1COc2cc(F)ccc2N1C(=O)N1CC2(C1)CN(c1cnccn1)C2 (single isomer, unassigned) [1-65-B] | ≤ 6.00
O=C(N1CC2(C1)CN(c1cc(F)ccn1)C2)N1CCOc2cc(Cl)ccc21 [1-70] | ≤ 6.00
CC1COc2cc(F)ccc2N1C(=O)N1CC2(C1)CN(c1ccccn1)C2 (single isomer, unassigned) [1-66-B] | ≤ 6.00
N#Cc1cccc(N2CC3(CN(C(=O)N4CCOc5cc(Cl)ccc54)C3)C2)n1 [1-39] | ≤ 6.00
Cc1nccc(N2CC3(CN(C(=O)N4c5ccc(Cl)cc5OCC4C)C3)C2)n1 (centres unmarked) [21-8] | ≤ 6.00
O=C(N1CC2(C1)CN(c1cccnc1)C2)N1CCOc2cc(Cl)ccc21 [1-72] | ≤ 6.00
CC1COc2cc(Cl)ccc2N1C(=O)N1CC2(C1)CN(c1ccncn1)C2 (centres unmarked) [21-6] | ≤ 6.00
O=C(N1CC2(C1)CN(c1cnc(F)cn1)C2)N1CCOc2cc(Cl)ccc21 [1-18] | ≤ 6.00
O=C(N1CC2(C1)CN(c1ccc(F)cn1)C2)N1CCC(O)c2cc(Cl)ccc21 (single isomer, unassigned) [13-1-B] | ≤ 6.00
CC1COc2cc(Cl)ccc2N1C(=O)N1CC2(C1)CN(c1ncncc1F)C2 (centres unmarked) [21-5] | ≤ 6.00
Cc1nc(N2CC3(CN(C(=O)N4CCOc5cc(Cl)ccc54)C3)C2)ccc1F [1-30] | ≤ 6.00
Cc1cnc(N2CC3(CN(C(=O)N4c5ccc(Cl)cc5OCC4C)C3)C2)nc1 (single isomer, unassigned) [20-13-B] | ≤ 6.00
Cc1cnc(N2CC3(CN(C(=O)N4CCOc5cc(Cl)ccc54)C3)C2)cn1 [1-20] | ≤ 6.00
CC1COc2cc(Cl)ccc2N1C(=O)N1CC2(C1)CN(c1ccccn1)C2 (centres unmarked) [1-60] | ≤ 6.00
O=C(N1CC2(C1)CN(c1cc(F)cc(F)n1)C2)N1CCOc2cc(Cl)ccc21 [1-51] | ≤ 6.00
CCc1cnc(N2CC3(CN(C(=O)N4c5ccc(Cl)cc5OCC4C)C3)C2)nc1 (centres unmarked) [21-9] | ≤ 6.00
CC1COc2cc(F)ccc2N1C(=O)N1CC2(C1)CN(c1ncccc1F)C2 (centres unmarked) [1-67] | ≤ 6.00
O=C(N1CC2(C1)CN(c1cccnn1)C2)N1CCOc2cc(Cl)ccc21 [1-71] | ≤ 6.00
CC1COc2cc(F)ccc2N1C(=O)N1CC2(C1)CN(c1ncccc1F)C2 (single isomer, unassigned) [1-67-A] | ≤ 6.00

Structure (SMILES) | pIC50
CC1COc2cc(Cl)ccc2N1C(=O)N1CC2(C1)CN(c1nn(C)c3ncccc13)C2 (single isomer, unassigned) [20-15-B] | ≤ 6.00
Cc1cncc(N2CC3(CN(C(=O)N4c5ccc(Cl)cc5OCC4C)C3)C2)n1 (centres unmarked) [21-3] | ≤ 6.00
COc1ccc2c(c1)OCC(C)N2C(=O)N1CC2(C1)CN(c1ccc(F)cn1)C2 (single isomer, unassigned) [1-59-B] | ≤ 6.00
CC1COc2cc(Cl)ccc2N1C(=O)N1CC2(C1)CN(c1ccc(F)cn1)C2 (single isomer, unassigned) [1-73-A] | ≤ 6.00
Cc1cncc(N2CC3(CN(C(=O)N4CCOc5cc(Cl)ccc54)C3)C2)n1 [1-22] | ≤ 6.00
CC1COc2cc(Cl)ccc2N1C(=O)N1CC2(C1)CN(c1nccc(C(F)(F)F)n1)C2 (centres unmarked) [21-10] | ≤ 6.00
Cc1cc(F)nc(N2CC3(CN(C(=O)N4CCOc5cc(Cl)ccc54)C3)C2)c1 [1-45] | ≤ 6.00
CC1COc2cc(Cl)ccc2N1C(=O)N1CC2(C1)CN(c1ncccc1F)C2 (single isomer, unassigned) [1-57-A] | ≤ 6.00
CC1COc2cc(Cl)ccc2N1C(=O)N1CC2(C1)CN(c1ncccc1C#N)C2 (centres unmarked) [21-2] | ≤ 6.00
O=C(N1CC2(C1)CN(c1ccc(F)cn1)C2)N1CCOc2cc(F)ccc21 [1-64] | ≤ 6.00
COc1nccnc1N1CC2(CN(C(=O)N3CCOc4cc(Cl)ccc43)C2)C1 [1-43] | ≤ 6.00
Cc1cccc(N2CC3(CN(C(=O)N4CCOc5cc(Cl)ccc54)C3)C2)n1 [1-3] | ≤ 6.00
CC1COc2cc(Cl)ccc2N1C(=O)N1CC2(C1)CN(c1cnccn1)C2 (single isomer, unassigned) [1-58-B] | ≤ 6.00
O=C(N1CC2(C1)CN(c1cccc(F)n1)C2)N1CCOc2cc(Cl)ccc21 [1-69] | ≤ 6.00
Cc1cnnc(N2CC3(CN(C(=O)N4c5ccc(Cl)cc5OCC4C)C3)C2)c1 (centres unmarked) [21-4] | ≤ 6.00
N#Cc1ccnc(N2CC3(CN(C(=O)N4CCOc5cc(Cl)ccc54)C3)C2)c1 [1-53] | ≤ 6.00
O=C(N1CC2(C1)CN(c1ccc(F)c(F)n1)C2)N1CCOc2cc(Cl)ccc21 [1-49] | ≤ 6.00
Cc1cc(N2CC3(CN(C(=O)N4c5ccc(Cl)cc5OCC4C)C3)C2)ncn1 (centres unmarked) [21-11] | ≤ 6.00
CC1COc2cc(Cl)ccc2N1C(=O)N1CC2(C1)CN(c1ncc(F)cn1)C2 (single isomer, unassigned) [18-2-B] | ≤ 6.00
CC1COc2cc(Cl)ccc2N1C(=O)N1CC2(C1)CN(c1ccc(F)cn1)C2 (single isomer, unassigned) [1-73-B] | ≤ 6.00
CCC1COc2cc(Cl)ccc2N1C(=O)N1CC2(C1)CN(c1ccc(F)cn1)C2 (single isomer, unassigned) [1-55-B] | ≤ 6.00
COc1ccc(N2CC3(CN(C(=O)N4CCOc5cc(Cl)ccc54)C3)C2)nc1 [1-68] | ≤ 6.00
